“And” between values parts separate entries of the source, which are not always exact repeats. Equal values may be shown once.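 Dose response: 5 concentrations. Exposure: 48 h. Format: 96-well plates. Endpoint: linear interpolation; highest concentration if not reached. GI50 is the concentration that inhibits growth by half. At the TGI there is no net growth.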
Assays:
Test in all cases: DTP human tumour cell line panel, 48 h
[1] = system: 786-0 renal
[2] = system: A498 renal
[3] = system: A549 NSCLC
[4] = system: ACHN renal
[5] = system: BT-549 breast
[6] = system: CCRF-CEM leukemia
[7] = system: COLO 205 colon
[8] = system: DU-145 prostate
[9] = system: EKVX NSCLC
[10] = system: HCC-2998 colon
[11] = system: HCT-116 colon
[12] = system: HCT-15 colon
[13] = system: HL-60(TB) leukemia
[14] = system: HOP-62 NSCLC
[15] = system: HOP-92 NSCLC
[16] = system: HS 578T breast
[17] = system: HT29 colon
[18] = system: IGROV1 ovarian
[19] = system: K-562 leukemia
[20] = system: KM12 colon
[21] = system: LOX IMVI melanoma
[22] = system: M14 melanoma
[23] = system: MALME-3M melanoma
[24] = system: MCF7 breast
[25] = system: MDA-MB-231 breast
[26] = system: MDA-MB-435
[27] = system: MOLT-4 leukemia
[28] = system: NCI-H226 lung
[29] = system: NCI-H23 lung
[30] = system: NCI-H460 lung
[31] = system: NCI-H522 lung
[32] = system: NCI/ADR-RES ovarian
[33] = system: OVCAR-3 ovarian
[34] = system: OVCAR-4 ovarian
[35] = system: OVCAR-5 ovarian
[36] = system: OVCAR-8 ovarian
[37] = system: PC-3 prostate
[38] = system: RPMI-8226 leukemia
[39] = system: SF-268 CNS
[40] = system: SF-295 CNS
[41] = system: SF-539 CNS
[42] = system: SK-MEL-2 melanoma
[43] = system: SK-MEL-28 melanoma
[44] = system: SK-MEL-5 melanoma
[45] = system: SK-OV-3 ovarian
[46] = system: SN12C renal
[47] = system: SNB-19 CNS
[48] = system: SNB-75 CNS
[49] = system: SR leukemia
[50] = system: SW-620 colon
[51] = system: T-47D breast
[52] = system: TK-10 renal
[53] = system: U251 CNS
[54] = system: UACC-257 melanoma
[55] = system: UACC-62 melanoma
[56] = system: UO-31 renal

For `COC(=O)C12CC(NC(=O)c3csc([C@@H](C[C@H](C(C)C)N(C)C(=O)[C@@H](NC(=O)[C@H]4CCCCN4C)C(C)C)OC(C)=O)n3)(C1)C2`, the GI50 [1] was 5 nM and 3.33 nM, the TGI [1] was over 33300 nM and the GI50 [2] was 15.3 nM and 4.73 nM. For the same compound, the TGI [2] was 829 nM and 194 nM, the GI50 [3] was 16.3 nM and 4.13 nM and the TGI [3] was over 33300 nM. For the same compound, the GI50 [4] was 17.4 nM, the TGI [4] was over 33300 nM and the GI50 [5] was 4.39 nM and 3.41 nM. The TGI [5] was 93.9 nM and 330 nM, the GI50 [6] was 0.518 nM and 3.33 nM and the TGI [6] was over 33300 nM. The GI50 [7] was 1.41 nM, the TGI [7] was 16.2 nM and the GI50 [8] was 1.65 nM and 3.33 nM. The TGI [8] was over 33300 nM, the GI50 [9] was 18 nM and 4.26 nM and the TGI [9] was over 33300 nM. The GI50 [10] was 7.48 nM and 3.33 nM, the TGI [10] was over 33300 nM and the GI50 [11] was 3.02 nM and 3.33 nM. For the same compound, the TGI [11] was over 33300 nM, the GI50 [12] was 14.5 nM and 8.01 nM and the TGI [12] was over 33300 nM. It also gave a GI50 [13] of 0.345 nM, a TGI [13] of 3.02 nM and a GI50 [14] of 3.53 nM. The GI50 [15] was over 33300 nM, the TGI [15] was over 33300 nM and the GI50 [16] was 3.33 nM. The TGI [16] was over 33300 nM, the GI50 [17] was 1.77 nM and 3.33 nM and the TGI [17] was 39.6 nM. The GI50 [18] was 2.37 nM and 3.33 nM, the TGI [18] was over 33300 nM and the GI50 [19] was 0.513 nM and 3.33 nM. For the same compound, the TGI [19] was over 33300 nM, the GI50 [20] was 5.07 nM and 3.33 nM and the TGI [20] was over 33300 nM. The GI50 [21] was 2.17 nM and 3.33 nM, the TGI [21] was over 33300 nM and the GI50 [22] was 1.76 nM and 3.33 nM. For the same compound, the TGI [22] was over 33300 nM, the GI50 [23] was 7160 nM and the TGI [23] was over 33300 nM. The GI50 [24] was 0.598 nM and 3.33 nM, the TGI [24] was over 33300 nM and the GI50 [25] was 4.34 nM and 3.33 nM. For the same compound, the GI50 [26] was 0.165 nM, the TGI [26] was 1.69 nM and the GI50 [27] was 6.88 nM and 3.33 nM. For the same compound, the TGI [27] was over 33300 nM, the GI50 [28] was 18.1 nM and 22.7 nM and the GI50 [29] was 10.4 nM and 3.33 nM. For the same compound, the TGI [29] was over 33300 nM, the GI50 [30] was 2.98 nM and 3.33 nM and the TGI [30] was over 33300 nM. The GI50 [31] was 0.185 nM and < 3.33 nM, the TGI [31] was 0.929 nM and < 3.33 nM and the GI50 [32] was 147 nM. The TGI [32] was over 33300 nM, the GI50 [33] was 0.335 nM and 3.33 nM and the TGI [33] was 2.4 nM and 4.41 nM. For the same compound, the TGI [34] was over 33300 nM, the TGI [35] was over 33300 nM and the GI50 [36] was 4.29 nM and 3.33 nM. For the same compound, the TGI [36] was over 33300 nM, the GI50 [37] was 6.39 nM and 3.33 nM and the TGI [37] was over 33300 nM. For the same compound, the GI50 [38] was 1.31 nM and 3.33 nM, the TGI [38] was over 33300 nM and the GI50 [39] was 4.88 nM and 3.88 nM. For the same compound, the TGI [39] was over 33300 nM, the GI50 [40] was 4.54 nM and the GI50 [41] was 2.26 nM. For the same compound, the TGI [41] was 26.7 nM, the GI50 [42] was 1.97 nM and the GI50 [43] was over 33300 nM. For the same compound, the TGI [43] was over 33300 nM, the GI50 [44] was 0.829 nM and 3.33 nM and the TGI [44] was 32.4 nM and 173 nM. The GI50 [45] was 6.39 nM and 3.33 nM, the TGI [45] was over 33300 nM and the GI50 [46] was 3 nM and 3.33 nM. For the same compound, the TGI [46] was over 33300 nM, the GI50 [47] was 2.2 nM and 3.33 nM and the TGI [47] was over 33300 nM. For the same compound, the GI50 [48] was 3.33 nM, the TGI [48] was over 33300 nM and the GI50 [49] was 0.745 nM. For the same compound, the GI50 [50] was 0.535 nM and 3.33 nM, the TGI [50] was over 33300 nM and the GI50 [51] was 4.07 nM. For the same compound, the GI50 [52] was 379 nM, the TGI [52] was over 33300 nM and the GI50 [53] was 4.29 nM and 3.33 nM. It also gave a TGI [53] of over 33300 nM, a GI50 [54] of over 33300 nM and a TGI [54] of over 33300 nM. The GI50 [55] was 3.13 nM and 3.33 nM, the TGI [55] was over 33300 nM and the GI50 [56] was 46.2 nM.
